Experimental data: US20220265629A1, “TREATMENT OF SYSTOLIC DYSFUNCTION AND HEART FAILURE WITH REDUCED EJECTION FRACTION WITH THE COMPOUND (R)-4-(1-((3-(DIFLUOROMETHYL)-1-METHYL-1H-PYRAZOL-4-YL)SULFONYL)-1-FLUOROETHYL)-N-(ISOXAZOL-3-YL)PIPERIDINE-1-CARBOXAMIDE” (MyoKardia, Inc., priority 2019, published 2022)
Like-named read-outs stand apart in the source and are kept apart here.

Experiment: Single ascending oral dose study in healthy volunteers: plasma pharmacokinetics
Type: in vivo, human
Conditions: for Plasma concentration, Mean / concentration at 6 h: 6 Hours Postdose; for concentration at 6 h / concentration at 12 h / concentration at 24 h / concentration at 48 h / concentration at 72 h / AUC(0-t) / AUC(0-inf) / Cmax / half-life / MRT / Tmax / Vd/F: human, plasma, oral; for concentration at 12 h: 12 Hours Postdose; for concentration at 24 h: 24 Hours Postdose; for concentration at 48 h: 48 Hours Postdose; for concentration at 72 h: 72 Hours Postdose
Description: This example describes the first-in-human study of Compound I. Based on its mechanism of action, Compound I may offer a targeted therapy for patients with DCM caused by genetic or nongenetic mechanisms. The study was a randomized, double-blind, placebo-controlled, sequential group, single-ascending (oral) close study in healthy subjects aged 18-55 years. Eight dosing cohorts, each comprising eight healthy subjects, were enrolled. Within each cohort, subjects were randomized 6:2 to Compound I:placebo.
Subjects were resident at the clinical site for up to 5 days and 4 nights, from Day −1 (the day before dosing) to Day 4, and received a single dose of Compound I or placebo on Day 1. ECG telemetry was initiated 1 hour preclose and continued through 48 hours postclose (Day 3). Any subject with a preclose resting HR≥80 beats per minute was considered ineligible and not treated. […] Subjects returned for a safety follow-up visit 7 days (±1 day) after dosing.
All randomized study subjects received either Compound I or matching placebo as a single oral dose after a fasting period of at least 6 hours. Compound I drug substance is a crystalline, free-base, synthetic molecule with a molecular weight of 435.4 g/mol.
Compound I was provided as a powder for oral suspension. Placebo was provided as calcium carbonate powder. Both treatments were closed orally as a suspension. The suspension was made using Ora-Plus® suspending vehicle (Perrigo) and a cherry syrup flavoring vehicle (Humco), mixed 50% to 50%. The suspension was followed by approximately 100 mL water. The suspension was made up within 14 days from the time in which it was closed which was consistent with the stability data on the suspension. The suspension was made up so the volume administered to the subjects who received Compound I was the same at 20 mL.
Each subject received a close according to the cohort in which they were enrolled. Cohorts were enrolled sequentially, with each cohort receiving an escalated dose of Compound I. The closes administered were 3 mg, 10 mg, 25 mg, 50 mg, 100 mg, 175 mg, 350 mg, and 525 mg, respectively.
The concentrations of Compound I in human plasma and urine were quantitated by high performance liquid chromatography with tandem mass spectrometric detection (LC MS/MS) (Biological sample analysis study report Alturas AD17-726). Plasma samples were extracted by protein precipitation with acetonitrile containing internal standard MYK-5654. The calibration curves were linear over concentration range of 0.500 to 1000 ng/mL with a lower limit of quantification (LLOQ) of 0.500 ng/mL.
The PK Population included all subjects who received Compound I. Blood samples were collected for PK assessments. The actual timing of the samples may have been modified and/or up to an additional 2 samples may have been requested by the SRC after review of the data from previous cohorts. It was important that PK sampling occurred as closely as possible to the scheduled time (±10%). Both blood and urine samples were used for PK assessments.
In addition, for subjects who received placebo, a single plasma sample near the predicted tmax of Compound I was evaluated to confirm the lack of circulating Compound I. Plasma concentration data for Compound I was summarized using descriptive statistics, including mean, standard deviation (SD), median, minimum, and maximum values, and percent coefficient of variation. Other PK parameters included (but were not limited to) Cmax, tmax, AUC, t1/2, and MRT. Additionally, the apparent terminal-phase terminal half-life was calculated. The close proportionality of AUC and Cmax was explored.

[1] = 3 mg, 3 mg, read-out: Plasma concentration, Geometric Mean
[2] = 3 mg, 3 mg, read-out: Plasma concentration, Mean
[3] = 3 mg, 3 mg, read-out: Plasma concentration, Median
[4] = 10 mg, 10 mg, read-out: Plasma concentration, Geometric Mean
[5] = 10 mg, 10 mg, read-out: Plasma concentration, Mean
[6] = 10 mg, 10 mg, read-out: Plasma concentration, Median

Compound: Cn1cc(S(=O)(=O)[C@@](C)(F)C2CCN(C(=O)Nc3ccon3)CC2)c(C(F)F)n1 [Compound I, (R)-4-(1-((3-(difluoromethyl)-1-methyl-1H-pyrazol-4-yl)sulfonyl)-1-fluoroethyl)-N-(isoxazol-3-yl)piperidine-1-carboxamide]
- CL/F, Geometric Mean (3 mg): 4.15 L/h
- CL/F, Mean (3 mg): 4.26 L/h
- CL/F, Median (3 mg): 4.22 L/h
- Extrapolation, Geometric Mean (3 mg): 2.71%
- Extrapolation, Mean (3 mg): 2.78%
- Extrapolation, Median (3 mg): 2.82%
- CL/F, Geometric Mean (10 mg): 2.99 L/h
- CL/F, Mean (10 mg): 3.06 L/h
- CL/F, Median (10 mg): 2.88 L/h
- Extrapolation, Geometric Mean (10 mg): 1.59%
- Extrapolation, Mean (10 mg): 1.90%
- Extrapolation, Median (10 mg): 2.24%
- CL/F, Geometric Mean (25 mg): 3.55 L/h
- CL/F, Mean (25 mg): 3.69 L/h
- CL/F, Median (25 mg): 3.32 L/h
- Extrapolation, Geometric Mean (25 mg): 1.45%
- Extrapolation, Mean (25 mg): 1.72%
- Extrapolation, Median (25 mg): 1.92%
- CL/F, Geometric Mean (50 mg): 4.47 L/h
- CL/F, Mean (50 mg): 4.53 L/h
- CL/F, Median (50 mg): 4.46 L/h
- Extrapolation, Geometric Mean (50 mg): 0.46%
- Extrapolation, Mean (50 mg): 0.91%
- Extrapolation, Median (50 mg): 0.46%
- CL/F, Geometric Mean (100 mg): 4.69 L/h
- CL/F, Mean (100 mg): 4.76 L/h
- CL/F, Median (100 mg): 5.33 L/h
- Extrapolation, Geometric Mean (100 mg): 0.36%
- Extrapolation, Mean (100 mg): 5.48%
- Extrapolation, Median (100 mg): 0.14%
- CL/F, Geometric Mean (175 mg): 4.57 L/h
- CL/F, Mean (175 mg): 4.66 L/h
- CL/F, Median (175 mg): 4.45 L/h
- Extrapolation, Geometric Mean (175 mg): 0.14%
- Extrapolation, Mean (175 mg): 0.17%
- Extrapolation, Median (175 mg): 0.16%
- CL/F, Geometric Mean (350 mg): 4.75 L/h
- CL/F, Mean (350 mg): 4.95 L/h
- CL/F, Median (350 mg): 4.75 L/h
- Extrapolation, Geometric Mean (350 mg): 0.37%
- Extrapolation, Mean (350 mg): 0.60%
- Extrapolation, Median (350 mg): 0.43%
- AUC0-∞, Mean (350 mg + 525 mg): 74358.88 ng·h/mL
- CL/F, Geometric Mean (350 mg + 525 mg): 6.04 L/h
- CL/F, Mean (350 mg + 525 mg): 6.51 L/h
- CL/F, Median (350 mg + 525 mg): 6.10 L/h
- Extrapolation, Geometric Mean (350 mg + 525 mg): 0.29%
- Extrapolation, Mean (350 mg + 525 mg): 0.59%
- Extrapolation, Median (350 mg + 525 mg): 0.32%
- Tmax, Mean (350 mg + 525 mg): 4.96 h
- CL/F, Geometric Mean (525 mg): 7.66 L/h
- CL/F, Mean (525 mg): 8.07 L/h
- CL/F, Median (525 mg): 7.64 L/h
- Extrapolation, Geometric Mean (525 mg): 0.22%
- Extrapolation, Mean (525 mg): 0.59%
- Extrapolation, Median (525 mg): 0.23%
- Plasma concentration, Mean (350 mg): 2660.000 ng/mL
- Plasma concentration, Mean (350 mg + 525 mg): 2437.500 ng/mL
- Plasma concentration, Mean (525 mg): 2215.000 ng/mL
- dose proportionality, power model slope (all dose groups, 95% CI 0.8358-0.9417): 0.8888
- concentration at 6 h [1]: 35.2 ng/mL
- concentration at 6 h [2]: 35.8 ng/mL
- concentration at 6 h [3]: 33.5 ng/mL
- concentration at 12 h [1]: 21.5 ng/mL
- concentration at 12 h [2]: 21.9 ng/mL
- concentration at 12 h [3]: 21.7 ng/mL
- concentration at 24 h [1]: 11 ng/mL
- concentration at 24 h [2]: 11.3 ng/mL
- concentration at 24 h [3]: 10.8 ng/mL
- concentration at 48 h [1]: 2.29 ng/mL
- concentration at 48 h [2]: 2.7 ng/mL
- concentration at 48 h [3]: 2.34 ng/mL
- concentration at 72 h [2]: 0.586 ng/mL
- concentration at 72 h [3]: 0.449 ng/mL
- AUC(0-t) (3 mg, read-out: AUC0-24, Geometric Mean): 514 ng·h/mL
- AUC(0-t) (3 mg, read-out: AUC0-24, Mean): 521 ng·h/mL
- AUC(0-t) (3 mg, read-out: AUC0-24, Median): 504 ng·h/mL
- AUC(0-t) (3 mg, read-out: AUC0-48, Geometric Mean): 676 ng·h/mL
- AUC(0-t) (3 mg, read-out: AUC0-48, Mean): 689 ng·h/mL
- AUC(0-t) (3 mg, read-out: AUC0-48, Median): 678 ng·h/mL
- AUC(0-t) (3 mg, read-out: AUC0-last, Geometric Mean): 702 ng·h/mL
- AUC(0-t) (3 mg, read-out: AUC0-last, Mean): 721 ng·h/mL
- AUC(0-t) (3 mg, read-out: AUC0-last, Median): 713 ng·h/mL
- AUC(0-inf) (3 mg, read-out: AUC0-∞, Geometric Mean): 722 ng·h/mL
- AUC(0-inf) (3 mg, read-out: AUC0-∞, Mean): 741 ng·h/mL
- AUC(0-inf) (3 mg, read-out: AUC0-∞, Median): 730 ng·h/mL
- Cmax (3 mg, read-out: Cmax, Geometric Mean): 37.6 ng/mL
- Cmax (3 mg, read-out: Cmax, Mean): 38.2 ng/mL
- Cmax (3 mg, read-out: Cmax, Median): 36.5 ng/mL
- half-life (3 mg, read-out: Half-Life Lambda Z, Geometric Mean (converted)): 11.1 h
- half-life (3 mg, read-out: Half-Life Lambda Z, Mean (converted)): 11.3 h
- half-life (3 mg, read-out: Half-Life Lambda Z, Median (converted)): 11.2 h
- MRT (3 mg, read-out: Mean Residence Time, Geometric Mean): 17.3 h
- MRT (3 mg, read-out: Mean Residence Time, Mean): 17.5 h
- MRT (3 mg, read-out: Mean Residence Time, Median): 16.8 h
- Tmax (3 mg, read-out: Tmax, Geometric Mean): 4.33 h
- Tmax (3 mg, read-out: Tmax, Mean): 4.46 h
- Tmax (3 mg, read-out: Tmax, Median): 4 h
- Vd/F (3 mg, read-out: Vz/F, Geometric Mean): 66.5 L
- Vd/F (3 mg, read-out: Vz/F, Mean): 66.9 L
- Vd/F (3 mg, read-out: Vz/F, Median): 65.4 L
- concentration at 6 h [4]: 129 ng/mL
- concentration at 6 h [5]: 131 ng/mL
- concentration at 6 h [6]: 137 ng/mL
- concentration at 12 h [4]: 92.8 ng/mL
- concentration at 12 h [5]: 94.2 ng/mL
- concentration at 12 h [6]: 97.8 ng/mL
- concentration at 24 h [4]: 56.3 ng/mL
- concentration at 24 h [5]: 57.8 ng/mL
- concentration at 24 h [6]: 61.5 ng/mL
- concentration at 48 h [4]: 15.8 ng/mL
- concentration at 48 h [5]: 16.4 ng/mL
